What was measured:
Assay type in all cases: in vivo
[1] = system: lameness during navicular disease (podotrochlear syndrome); assay: Clinical study in horses with lameness during navicular disease (podotrochlear syndrome); conditions: for percentage of animals in category Average / percentage of animals in category Favourable / percentage of animals in category Mediocre / percentage of animals in category Poor / percentage of animals in category Very favourable: 0.1 mg/kg i.v. weekly for 6 to 10 weeks
Protocol: A clinical study was carried out to evaluate the effects of a treatment with disodium tiludronate on horses which develop lameness during navicular disease (also known as podotrochlear syndrome). The study was carried out on 24 horses, the diagnosis of the navicular disease causing lameness being based on the following criteria: • local signs in the palmar region: heat, swelling, pain • functional signs of limping graded on a scale from 0 (no sign of limping) to 4 (trouble in bearing weight when at rest and/or in motion and difficulty in moving around) • a functional test of locomotion after flexing the palmar region, also assessed on a scale from 0 (locomotion not changed by flexure) to 4 (start of suppression of bearing weight) • a radiological examination to assess radiological signs in the palmar region qualitatively. To be included, the animal had to show no signs or lesions of septic arthritis, or any fractures of the bones in the palmar region. Also, it needed to have not received an injection for anti-inflammatory treatment in the joints of the palmar region. The wearing of an orthopaedic shoe was not contra-indicated since most of the animals had been […] for several weeks and were already wearing a shoe of this type. All the animals received, as a single treatment, disodium tiludronate in the form of an injectable solution administered intravenously at a dose of 0.1 mg/kg, at a weekly administration rate for 6 to 10 weeks. The first day of treatment corresponds to D0. To assess the effects of the treatment, the animals were reviewed 1 month after D0 (M1), 2 months after D0 (M2) and 6 months after D0 (M6). The effects of the treatment were assessed with regard to: • the local signs, the functional signs and the test of locomotion after flexure as defined during inclusion of the animal into the test • a radiological examination to assess the change in the radiological signs • an assessment of the resumption of the animal's sporting activity. […] The table below summarizes the effects of the treatment (expressed as a percentage of animals present in each category): […]

[2] = system: lameness during bone spavin; assay: Clinical study in horses with lameness during bone spavin (osteoarthrosis of the distal stage of the tarsus); conditions: for percentage of animals in category Average / percentage of animals in category Favourable / percentage of animals in category Mediocre / percentage of animals in category Poor / percentage of animals in category Very favourable: procedure as Example 1
Protocol: The study was carried out on 24 horses, the diagnosis of the navicular disease causing lameness being based on the following criteria: • local signs in the palmar region: heat, swelling, pain • functional signs of limping graded on a scale from 0 (no sign of limping) to 4 (trouble in bearing weight when at rest and/or in motion and difficulty in moving around) • a functional test of locomotion after flexing the palmar region, also assessed on a scale from 0 (locomotion not changed by flexure) to 4 (start of suppression of bearing weight) • a radiological examination to assess radiological signs in the palmar region qualitatively.
All the animals received, as a single treatment, disodium tiludronate in the form of an injectable solution administered intravenously at a dose of 0.1 mg/kg, at a weekly administration rate for 6 to 10 weeks. The first day of treatment corresponds to D0.
To assess the effects of the treatment, the animals were reviewed 1 month after D0 (M1), 2 months after D0 (M2) and 6 months after D0 (M6). The effects of the treatment were assessed with regard to: • the local signs, the functional signs and the test of locomotion after flexure as defined during inclusion of the animal into the test • a radiological examination to assess the change in the radiological signs • an assessment of the resumption of the animal's sporting activity.
A clinical study was carried out in order to evaluate the effects of a treatment with disodium tiludronate on horses which develop lameness during bone spavin (which is osteoarthrosis of the distal stage of the tarsus).
The test procedure and the clinical monitoring of the animals were the same as those described in Example 1, except that the local, functional and radiological signs were assessed in the region of the hock.
5 horses were included in this test.
The results obtained were as follows (expressed as a percentage of animals present in each category): […]

[3] = system: lameness during enthesopathy of the insertion of the tendons and the ligaments; assay: Clinical study in horses with lameness during enthesopathy of the insertion of the tendons and the ligaments; conditions: procedure as Example 1
Protocol: The study was carried out on 24 horses, the diagnosis of the navicular disease causing lameness being based on the following criteria: • local signs in the palmar region: heat, swelling, pain • functional signs of limping graded on a scale from 0 (no sign of limping) to 4 (trouble in bearing weight when at rest and/or in motion and difficulty in moving around) • a functional test of locomotion after flexing the palmar region, also assessed on a scale from 0 (locomotion not changed by flexure) to 4 (start of suppression of bearing weight) • a radiological examination to assess radiological signs in the palmar region qualitatively. All the animals received, as a single treatment, disodium tiludronate in the form of an injectable solution administered intravenously at a dose of 0.1 mg/kg, at a weekly administration rate for 6 to 10 weeks. The first day of treatment corresponds to D0. To assess the effects of the treatment, the animals were reviewed 1 month after D0 (M1), 2 months after D0 (M2) and 6 months after D0 (M6). The effects of the treatment were assessed with regard to: • the local signs, the functional signs and the test of locomotion after flexure as defined during inclusion of the animal into the test • a radiological examination to assess the change in the radiological signs • an assessment of the resumption of the animal's sporting activity. […] A clinical study was carried out to evaluate the effects of a treatment with disodium tiludronate on horses which develop lameness during enthesopathy of the insertion of the tendons and the ligaments. The test procedure and the clinical monitoring of the animals were the same as those described in Example 1, except that the local, functional and radiological signs were evaluated in the region of the tendon or ligament insertions at the source of lameness. 6 horses were included in this test. The results obtained were as follows (expressed as a percentage of animals present in each category): […]

[4] = system: lameness associated with bone lesions during osteochondrosis; assay: Clinical study in horses with lameness associated with sub-chondral cysts during osteochondrosis; conditions: procedure as Example 1
Protocol: The study was carried out on 24 horses, the diagnosis of the navicular disease causing lameness being based on the following criteria: • local signs in the palmar region: heat, swelling, pain • functional signs of limping graded on a scale from 0 (no sign of limping) to 4 (trouble in bearing weight when at rest and/or in motion and difficulty in moving around) • a functional test of locomotion after flexing the palmar region, also assessed on a scale from 0 (locomotion not changed by flexure) to 4 (start of suppression of bearing weight) • a radiological examination to assess radiological signs in the palmar region qualitatively. All the animals received, as a single treatment, disodium tiludronate in the form of an injectable solution administered intravenously at a dose of 0.1 mg/kg, at a weekly administration rate for 6 to 10 weeks. The first day of treatment corresponds to D0. To assess the effects of the treatment, the animals were reviewed 1 month after D0 (M1), 2 months after D0 (M2) and 6 months after D0 (M6). The effects of the treatment were assessed with regard to: • the local signs, the functional signs and the test of locomotion after flexure as defined during inclusion of the animal into the test • a radiological examination to assess the change in the radiological signs • an assessment of the resumption of the animal's sporting activity. […] A clinical study was carried out to evaluate the effects of a treatment with disodium tiludronate on horses which develop lameness associated with bone lesions in the form of sub-chondral cysts during osteochondrosis. The test procedure and the clinical monitoring of the animals were the same as those described in Example 1, except that the local, functional and radiological signs were evaluated in the joints affected by osteochondrosis. 5 horses were included in this test. The results obtained were as follows (expressed as a percentage of animals present in each category): […]

[5] = Examination at M1 (1 month after D0)
[6] = Examination at M2 (2 months after D0)
[7] = Examination at M6 (6 months after D0)

O=P(O)(O)C(Sc1ccc(Cl)cc1)P(=O)(O)O [disodium tiludronate, 4-chlorophenylthiomethylenebisphosphonic acid]
percentage of animals in category Average [1, 5]: 38%
percentage of animals in category Favourable [1, 5]: 46%
percentage of animals in category Mediocre [1, 5]: 4%
percentage of animals in category Poor [1, 5]: 4%
percentage of animals in category Very favourable [1, 5]: 8%
percentage of animals in category Average [1, 6]: 26%
percentage of animals in category Favourable [1, 6]: 43%
percentage of animals in category Mediocre [1, 6]: 5%
percentage of animals in category Poor [1, 6]: 0%
percentage of animals in category Very favourable [1, 6]: 26%
percentage of animals in category Average [1, 7]: 27%
percentage of animals in category Favourable [1, 7]: 46%
percentage of animals in category Mediocre [1, 7]: 9%
percentage of animals in category Poor [1, 7]: 0%
percentage of animals in category Very favourable [1, 7]: 18%
time at which the benefit of the treatment is optimal ([1]; after administration of the treatment is started): 2 months
share of animals with complete recovery ([1]; at the end of administration of the treatment): a quarter of the animals
radiological examination of the palmar region ([1]; pathological radiological signs): did not reveal any change in kinetics of the pathological radiological signs
percentage of animals in category Average [2, 5]: 60%
percentage of animals in category Favourable [2, 5]: 40%
percentage of animals in category Mediocre [2, 5]: 0%
percentage of animals in category Poor [2, 5]: 0%
percentage of animals in category Very favourable [2, 5]: 0%
percentage of animals in category Average [2, 6]: 0%
percentage of animals in category Favourable [2, 6]: 60%
percentage of animals in category Mediocre [2, 6]: 0%
percentage of animals in category Poor [2, 6]: 0%
percentage of animals in category Very favourable [2, 6]: 40%
percentage of animals in category Average [2, 7]: 20%
percentage of animals in category Favourable [2, 7]: 20%
percentage of animals in category Mediocre [2, 7]: 0%
percentage of animals in category Poor [2, 7]: 20%
percentage of animals in category Very favourable [2, 7]: 40%
change in lameness induced by bone spavin after treatment ([2]; after treatment): favourable to very favourable in most of the animals
percentage of animals in category Average [3, 5]: 33%
percentage of animals in category Favourable [3, 5]: 50%
percentage of animals in category Mediocre [3, 5]: 17%
percentage of animals in category Poor [3, 5]: 0%
percentage of animals in category Very favourable [3, 5]: 0%
percentage of animals in category Average [3, 6]: 33%
percentage of animals in category Favourable [3, 6]: 67%
percentage of animals in category Mediocre [3, 6]: 0%
percentage of animals in category Poor [3, 6]: 0%
percentage of animals in category Very favourable [3, 6]: 0%
percentage of animals in category Average [3, 7]: 0%
percentage of animals in category Favourable [3, 7]: 40%
percentage of animals in category Mediocre [3, 7]: 20%
percentage of animals in category Poor [3, 7]: 0%
percentage of animals in category Very favourable [3, 7]: 40%
percentage of animals in category Average [4, 5]: 40%
percentage of animals in category Favourable [4, 5]: 0%
percentage of animals in category Mediocre [4, 5]: 0%
percentage of animals in category Poor [4, 5]: 20%
percentage of animals in category Very favourable [4, 5]: 40%
percentage of animals in category Average [4, 6]: 20%
percentage of animals in category Favourable [4, 6]: 40%
percentage of animals in category Mediocre [4, 6]: 0%
percentage of animals in category Poor [4, 6]: 20%
percentage of animals in category Very favourable [4, 6]: 20%
percentage of animals in category Average [4, 7]: 0%
percentage of animals in category Favourable [4, 7]: 0%
percentage of animals in category Mediocre [4, 7]: 40%
percentage of animals in category Poor [4, 7]: 0%
percentage of animals in category Very favourable [4, 7]: 60%
